Test results published in ChEMBL document CHEMBL1240309 (Nat Chem Biol, 2006).
Activity calls are given as the source filed them. The rule behind the calls is not given here.

Tests used:
Caenorhabditis elegans [1] = experiment: Antiapoptotic activity against Caenorhabditis elegans ced-3(n2438) mutant assessed as number of extra cells in anterior pharynx at 50 to 250 mM dissolved in soybean oil; assay type: functional, organism-based
Caenorhabditis elegans [2] = experiment: Antiapoptotic activity against Caenorhabditis elegans ced-3(n2433) mutant assessed as number of extra cells in anterior pharynx L3 and L4 larvae at 250 mM dissolved in soybean oil; assay type: functional, organism-based
[3] = Octanol-water partition coefficient, log P of the compound; assay type: physicochemical
Caenorhabditis elegans [4] = experiment: Antiapoptotic activity against Caenorhabditis elegans ced-9(n1950) mutant assessed as number of extra cells in anterior pharynx L3 and L4 larvae at 250 mM dissolved in soybean oil; assay type: functional, organism-based
Caenorhabditis elegans [5] = experiment: Antiapoptotic activity against Caenorhabditis elegans ced-3(n2447) S446L mutant assessed as number of extra cells in anterior pharynx L3 and L4 larvae at 250 mM dissolved in soybean oil; assay type: functional, organism-based
Caenorhabditis elegans [6] = experiment: Antiapoptotic activity against Caenorhabditis elegans ced-4(n2273) mutant assessed as number of extra cells in anterior pharynx L3 and L4 larvae at 250 mM dissolved in soybean oil; assay type: functional, organism-based
Caenorhabditis elegans [7] = experiment: Antiapoptotic activity against Caenorhabditis elegans ced-3(n2436) mutant assessed as number of extra cells in anterior pharynx L3 and L4 larvae at 250 mM dissolved in soybean oil; assay type: functional, organism-based
Caenorhabditis elegans [8] = experiment: Antiapoptotic activity against Caenorhabditis elegans ced-8(n1891) mutant assessed as number of extra cells in anterior pharynx L3 and L4 larvae at 250 mM dissolved in soybean oil; assay type: functional, organism-based
Caenorhabditis elegans [9] = experiment: Antiapoptotic activity against Caenorhabditis elegans ced-3(n2438) G474R mutant assessed as number of extra cells in anterior pharynx L3 and L4 larvae at 250 mM dissolved in soybean oil; assay type: functional, organism-based

Compound | Activity (Caenorhabditis elegans [1]) | Activity (Caenorhabditis elegans [2]) | logP [3] | Activity (Caenorhabditis elegans [4]) | Activity (Caenorhabditis elegans [5]) | Activity (Caenorhabditis elegans [6]) | Activity (Caenorhabditis elegans [7]) | Activity (Caenorhabditis elegans [8]) | Activity (Caenorhabditis elegans [9])
CCCCC(CC)COC(=O)c1ccccc1C(=O)OCC(CC)CCCC (centres undefined) | inactive |  |  |  |  |  |  |  | 
Clc1ccc(Cl)cc1 [1,4-DICHLOROBENZENE] |  | Active | 3.5 | Active | Active | Active | Active | Active | Active
